Experimental data published in patent publication US6958357B2, “Substituted benzimidazoles, processes for their preparation, their use as medicaments, and medicaments comprising them” (Aventis Pharma Deutschland GmbH, priority 2000, dated 2005).
Where “and” joins values, the source holds several entries; their conditions need not be identical. Equal entries are not always repeated. Structures can show the parent of a compound that is named as a salt.

tested on: not given; assay: not given; conditions: not given

SMILES | melting point
FC(F)(F)c1cccc(Cl)c1Nc1nc2ccccc2[nH]1 (as salt: hydrochloride) [Example 11, 2-(2-Trifluoromethyl-6-chlorophenylamino)benzimidazole hydrochloride] | 255 to 288 °C
Fc1c(F)c(F)c2[nH]c(Nc3c(Cl)cccc3Cl)nc2c1F (as salt: hydrochloride) [Example 14, 2-(2,6-Dichlorophenylamino)-4,5,6,7-tetrafluorobenzimidazole hydrochloride] | 220 to 222 °C

More lines, now with the values ahead:

melting point | SMILES
265 to 269 °C | Oc1ccc2[nH]c(Nc3c(Cl)cccc3Cl)nc2c1 (as salt: hydrobromid) [Example 13, 2-(2,6-Dichlorophenylamino)-5-hydroxybenzimidazole hydrobromide]
294 to 296 °C | Fc1ccc2[nH]c(Nc3c(Cl)cccc3Cl)nc2c1 (as salt: hydrochloride) [Example 9, 2-(2,6-Dichlorophenylamino)-5-fluorobenzimidazole hydrochloride]
333 to 335 °C | Cl.Oc1cccc2[nH]c(Nc3c(Cl)cccc3Cl)nc12 [Example 2, 2-(2,6-Dichlorophenylamino)-1H-benzimidazol-4-ol Hydrochloride]
268 to 296 °C | Cl.Fc1cccc2nc(Nc3c(Cl)cccc3Cl)[nH]c12 [Example 10, 2-(2,6-Dichlorophenylamino)-4-fluorobenzimidazole hydrochloride]
232 to 234 °C and 228 to 230 °C | Cl.Fc1ccc2nc(Nc3c(Cl)cccc3Cl)[nH]c2c1F [Example 12, 2-(2,6-Dichlorophenylamino)-4,5-difluorobenzimidazole hydrochloride]
310 to 314 °C | Cl.Fc1cc(F)c2[nH]c(Nc3c(Cl)cccc3Cl)nc2c1 [Example 15, 2-(2,6-Dichlorophenylamino)-4,6-difluorobenzimidazole hydrochloride]

molecular target: rNHE3 (Rattus norvegicus, UniProt P26433); assay: recovery of the intracellular pH (pHi) after acidification, BCECF fluorescence, NHE inhibition; assay type: cell-based; conditions: pH recovery recorded for three minutes in the case of NHE3; bicarbonate-free conditions
Method: In this test, the recovery of the intracellular pH (pHi) after an acidification was determined which commences with functional NHE even under bicarbonate-free conditions. For this, the pHi was determined using the pH-sensitive fluorescent dye BCECF (Calbiochem, the precursor BCECF-AM was employed). The cells were first loaded with BCECF. The BCECF fluorescence was determined in a “Ratio Fluorescence Spectrometer” (Photon Technology International, South Brunswick, N.J., USA) at excitation wavelengths of 505 and 440 nm and an emission wavelength of 535 nm and converted into the pHi by means of calibration curves. The cells were incubated in NH4Cl buffer (pH 7.4) even in the case of BCECF loading (NH4Cl buffer: 115 mM NaCl, 20 mM NH4Cl, 5 mM KCl, 1 mM CaCl2, 1 mM MgSO4, 20 mM Hepes, 5 mM glucose, 1 mg/ml of BSA; a pH of 7.4 is set using 1 M NaOH). The intracellular acidification was induced by addition of 975 μl of an NH4Cl-free buffer (see below) to 25 μl aliquots of the cells incubated in NH4Cl buffer. The subsequent rate of pH recovery was recorded for two minutes in the case of NHE1, for five minutes in the case of NHE2, and for three minutes in the case of NHE3. For the calculation of the inhibitory potency of the substances tested, the cells were first investigated in buffers in which a complete pH recovery or no pH recovery at all took place. For the complete pH recovery (100%), the cells were incubated in Na+-containing buffer (133.8 mM NaCl, 4.7 mM KCl, 1.25 mM CaCl2, 1.25 mM MgCl2, 0.97 mM […], 0.23 mM […], 5 mM Hepes, 5 mM glucose; a pH of 7.0 is set using 1 M NaOH). For the determination of the 0% value, the cells were incubated in an Na+-free buffer (133.8 mM choline chloride, 4.7 mM KCl, 1.25 mM CaCl2, 1.25 mM MgCl2, 0.97 mM K2HPO4, 0.23 mM KH2PO4, 5 mM Hepes, 5 mM glucose; a pH of 7.0 is set using 1 M NaOH). The substances to be tested were applied in the Na+-containing buffer. The recovery of the intracellular pH at each tested concentration of a substance was expressed in percent of the maximum recovery. The IC value of the respective substance for the individual NHE subtypes was calculated from the percentage values of the pH recovery by means of the program Sigma-Plot.

rNHE3, sequence (P26433 29-831): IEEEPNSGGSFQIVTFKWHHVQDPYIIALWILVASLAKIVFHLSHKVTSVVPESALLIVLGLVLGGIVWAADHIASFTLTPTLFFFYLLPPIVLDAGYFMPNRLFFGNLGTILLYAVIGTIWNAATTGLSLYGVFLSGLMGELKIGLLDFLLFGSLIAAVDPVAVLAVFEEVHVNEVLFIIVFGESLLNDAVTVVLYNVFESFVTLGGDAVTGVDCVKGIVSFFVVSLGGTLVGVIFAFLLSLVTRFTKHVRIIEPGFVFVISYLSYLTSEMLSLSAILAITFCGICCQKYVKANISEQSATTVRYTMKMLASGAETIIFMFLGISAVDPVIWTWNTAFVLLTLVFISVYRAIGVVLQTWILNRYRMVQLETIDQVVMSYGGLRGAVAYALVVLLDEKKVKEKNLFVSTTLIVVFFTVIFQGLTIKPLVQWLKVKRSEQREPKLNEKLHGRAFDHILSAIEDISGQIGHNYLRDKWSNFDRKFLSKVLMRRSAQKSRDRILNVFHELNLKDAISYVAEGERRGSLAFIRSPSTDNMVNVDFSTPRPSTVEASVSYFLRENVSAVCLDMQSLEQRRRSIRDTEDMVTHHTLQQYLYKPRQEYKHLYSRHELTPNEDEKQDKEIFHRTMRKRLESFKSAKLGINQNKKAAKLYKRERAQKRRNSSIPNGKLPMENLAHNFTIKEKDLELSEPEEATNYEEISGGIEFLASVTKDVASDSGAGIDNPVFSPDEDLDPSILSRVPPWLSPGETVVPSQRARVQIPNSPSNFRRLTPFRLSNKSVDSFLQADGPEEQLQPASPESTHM

SMILES | IC50 [µM]
Cc1cccc(C)c1Nc1nc2ccccc2[nH]1 [Example 3, (1H-Benzimidazol-2-yl)-(2,6-dimethylphenyl)amine trifluoracetate] | 0.64
Cc1cccc(Cl)c1Nc1nc2ccccc2[nH]1 [Example 4, (1H-Benzimidazol-2-yl)-(2-chloro-6-methylphenyl)amine hydrochloride] | 0.49
Fc1cc2nc(Nc3c(Cl)cccc3Cl)[nH]c2cc1F [Example 5, (2,6-Dichlorophenyl)-(5,6-difluoro-1H-benzimidazol-2-yl)amine hydrochloride] | 0.78
Cc1cccc2[nH]c(Nc3c(Cl)cccc3Cl)nc12 [Example 6, (2,6-Dichlorophenyl)-(4-methyl-1H-benzimidazol-2-yl)amine trifluoracetate] | 0.39
Fc1cccc(Cl)c1Nc1nc2ccccc2[nH]1 [Example 7, (1H-Benzimidazol-2-yl)-(2-chloro-6-fluorophenyl)amine hydrochloride] | 0.52
Brc1cccc(Br)c1Nc1nc2ccccc2[nH]1 [Example 8, (1H-Benzimidazol-2-yl)-(2,6-dibromophenyl)amine trifluoroacetate] | 0.65
FC(F)(F)c1cccc(Cl)c1Nc1nc2ccccc2[nH]1 [Example 11, 2-(2-Trifluoromethyl-6-chlorophenylamino)benzimidazole hydrochloride] | 0.83
Fc1c(F)c(F)c2[nH]c(Nc3c(Cl)cccc3Cl)nc2c1F [Example 14, 2-(2,6-Dichlorophenylamino)-4,5,6,7-tetrafluorobenzimidazole hydrochloride] | 5.6
Clc1ccccc1Nc1nc2ccccc2[nH]1 [Example 16, (1H-Benzimidazol-2-yl)-(2-chlorophenyl)amine trifluoroacetate] | 0.63
FC(F)(F)c1ccccc1Nc1nc2ccccc2[nH]1 [Example 17, (1H-Benzimidazol-2-yl)-(2-trifluoromethylphenyl)amine trifluoroacetate] | 3.5
Brc1ccccc1Nc1nc2ccccc2[nH]1 [Example 18, (1H-Benzimidazol-2-yl)-(2-bromophenyl)amine trifluoroacetate] | 1.2
Cc1ccccc1Nc1nc2ccccc2[nH]1 [Example 19, (1H-Benzimidazol-2-yl)-o-tolylamine hydrochloride] | 3.5

More lines, now with the values ahead:

IC50 [µM] | SMILES
0.53 | Clc1cccc(Cl)c1Nc1nc2ccccc2[nH]1 [Example 1, (1H-Benzimidazol-2-yl)-(2,6-dichlorophenyl)amine hydrochloride]
0.47 | Cl.Oc1cccc2[nH]c(Nc3c(Cl)cccc3Cl)nc12 [Example 2, 2-(2,6-Dichlorophenylamino)-1H-benzimidazol-4-ol Hydrochloride]
1 | Fc1ccc2[nH]c(Nc3c(Cl)cccc3Cl)nc2c1 [Example 9, 2-(2,6-Dichlorophenylamino)-5-fluorobenzimidazole hydrochloride]
3.2 | Cl.Fc1cccc2nc(Nc3c(Cl)cccc3Cl)[nH]c12 [Example 10, 2-(2,6-Dichlorophenylamino)-4-fluorobenzimidazole hydrochloride]
2.9 | Cl.Fc1ccc2nc(Nc3c(Cl)cccc3Cl)[nH]c2c1F [Example 12, 2-(2,6-Dichlorophenylamino)-4,5-difluorobenzimidazole hydrochloride]
1.1 | Oc1ccc2[nH]c(Nc3c(Cl)cccc3Cl)nc2c1 [Example 13, 2-(2,6-Dichlorophenylamino)-5-hydroxybenzimidazole hydrobromide]
1.6 | Cl.Fc1cc(F)c2[nH]c(Nc3c(Cl)cccc3Cl)nc2c1 [Example 15, 2-(2,6-Dichlorophenylamino)-4,6-difluorobenzimidazole hydrochloride]
